Like-named read-outs stand apart in the source and are kept apart here.
Biological target: human recombinant GPR65 (Homo sapiens, UniProt Q8IYL9)
Assay: Human GPR65 cAMP HTRF antagonist assay
Format: cell-based
Outline: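 1321N1 astrocytoma cells stably expressing hrGPR65, with IBMX and EDTA, were preincubated with compound 30 min at room temperature, then acid-activated at assay pH 7.2 (control pH 7.9) for 30 min. cAMP read by HTRF (665/620 nm ratio); IC50 from 4-parameter fit normalised to high/low controls.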

[1] = 1321N1-hrGPR65 cells, cAMP HTRF, assay pH 7.2, read-out: hGPR65 IC50 (Activity of selected compounds according to the invention)

Sequence of human recombinant GPR65 (Q8IYL9 whole entry): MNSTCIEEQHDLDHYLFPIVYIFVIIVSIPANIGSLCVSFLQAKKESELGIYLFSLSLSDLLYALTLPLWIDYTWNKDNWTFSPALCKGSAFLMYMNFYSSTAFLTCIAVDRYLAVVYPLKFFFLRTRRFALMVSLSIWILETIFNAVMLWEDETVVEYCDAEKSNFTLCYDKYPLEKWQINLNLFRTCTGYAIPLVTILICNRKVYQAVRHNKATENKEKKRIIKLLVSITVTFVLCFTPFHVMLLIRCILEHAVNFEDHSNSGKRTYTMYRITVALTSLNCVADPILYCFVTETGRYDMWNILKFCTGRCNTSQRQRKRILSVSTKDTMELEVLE

| SMILES | IC50 [nM] | IC50 [1] [nM] |
| --- | --- | --- |
| Cc1nc2ccc(-c3cc(F)c(NC(=O)N4[C@H]5CC[C@@H]4c4n[nH]c(=O)cc4C5)cc3Cl)cc2o1 [Compound 170, (6S,9R)-N-(5-Chloro-2-fluoro-4-(2-methylbenzo[d]oxazol-6-yl)phenyl)-3-oxo-3,5,6,7,8,9-hexahydro-2H-6,9-epiminocyclohepta[c]pyridazine-10-carboxamide] | < 500 |  |
| O=C(Nc1cc(Cl)c(Cl)cc1F)N1[C@H]2CC[C@@H]1c1c(F)ncc(Cl)c1C2 [Compound 99, (6S,9R)-4-Chloro-N-(4,5-dichloro-2-fluorophenyl)-1-fluoro-6,7,8,9-tetrahydro-5H-6,9-epiminocyclohepta[c]pyridine-10-carboxamide] |  | 500 to 5000 |
| O=C(Nc1cc(Cl)c(OC2CCC2)cc1F)N1C2CCC1c1n[nH]c(=O)cc1C2 (racemic) [Compound 51, (±)-N-(5-Chloro-4-cyclobutoxy-2-fluorophenyl)-3-oxo-3,5,6,7,8,9-hexahydro-2H-6,9-epiminocyclohepta[c]pyridazine-10-carboxamide] | < 500 |  |
| COc1ccc2c(n1)C[C@@H]1CC[C@H]2N1C(=O)Nc1cc(Cl)c(Cl)cc1F [Compound 54, (5R,8S)-N-(4,5-Dichloro-2-fluorophenyl)-2-methoxy-6,7,8,9-tetrahydro-5H-5,8-epiminocyclohepta[b]pyridine-10-carboxamide] |  | > 5000 |
| COc1ccc(-c2cc(F)c(NC(=O)N3[C@H]4CC[C@@H]3c3ccnc(F)c3C4)cc2Cl)cn1 [Compound 185, (5R,8S)-N-(5-Chloro-2-fluoro-4-(6-methoxypyridin-3-yl)phenyl)-1-fluoro-6,7,8,9-tetrahydro-5H-5,8-epiminocyclohepta[c]pyridine-10-carboxamide] | < 500 |  |
| O=C(Nc1cc(Cl)c(I)cc1F)N1[C@H]2CC[C@@H]1c1c[nH]c(=O)cc1C2 [Compound 79, (6S,9R)-N-(5-Chloro-2-fluoro-4-iodophenyl)-3-oxo-3,5,6,7,8,9-hexahydro-2H-6,9-epiminocyclohepta[c]pyridine-10-carboxamide] | < 500 |  |
| O=C(Nc1cc(Cl)c(-c2ccc(OC3CCOC3)nc2)cc1F)N1[C@H]2CC[C@@H]1c1n[nH]c(=O)cc1C2 (stereo partly drawn) [Compound 342, (6S,9R)-N-(5-Chloro-2-fluoro-4-(6-((tetrahydrofuran-3-yl)oxy)pyridin-3-yl)phenyl)-3-oxo-3,5,6,7,8,9-hexahydro-2H-6,9-epiminocyclohepta[c]pyridazine-10-carboxamide] | < 500 |  |
| O=C(Nc1cc(Cl)c(-c2cccnc2F)cc1F)N1[C@H]2CC[C@@H]1c1n[nH]c(=O)cc1C2 [Compound 115, (6S,9R)—N-(5-Chloro-2-fluoro-4-(2-fluoropyridin-3-yl)phenyl)-3-oxo-3,5,6,7,8,9-hexahydro-2H-6,9-epiminocyclohepta[c]pyridazine-10-carboxamide] | < 500 |  |
| O=C(Nc1cc(Cl)c(-c2ccc(OCC3CC3)nc2)cc1F)N1[C@H]2CC[C@@H]1c1c[nH]c(=O)cc1C2 [Compound 334, (6S,9R)-N-(5-Chloro-4-(6-(cyclopropylmethoxy)pyridin-3-yl)-2-fluorophenyl)-3-oxo-3,5,6,7,8,9-hexahydro-2H-6,9-epiminocyclohepta[c]pyridine-10-carboxamide] | < 500 |  |
| O=C(Nc1cc(Cl)c(Cl)cc1F)N1[C@H]2CC[C@@H]1c1ccnc(C(F)F)c1C2 [Compound 89, (5R,8S)-N-(4,5-Dichloro-2-fluorophenyl)-1-(difluoromethyl)-6,7,8,9-tetrahydro-5H-5,8-epiminocyclohepta[c]pyridine-10-carboxamide] |  | 500 to 5000 |
| O=C(Nc1cc(Cl)c(C(F)(F)F)cc1F)N1[C@@H]2CC[C@H]1c1n[nH]c(=O)cc1C2 [Compound 19, (6R,9S)-N-(5-Chloro-2-fluoro-4-(trifluoromethyl)phenyl)-3-oxo-3,5,6,7,8,9-hexahydro-2H-6,9-epiminocyclohepta[c]pyridazine-10-carboxamide] | < 500 |  |
| O=C(Nc1cc(Cl)c(Cl)cc1F)N1[C@H]2CC[C@@H]1c1ccnc(OC(F)F)c1C2 [Compound 93, (5R,8S)-N-(4,5-dichloro-2-fluorophenyl)-1-(difluoromethoxy)-6,7,8,9-tetrahydro-5H-5,8-epiminocyclohepta[c]pyridine-10-carboxamide] |  | 500 to 5000 |
| O=C(Nc1cc(Cl)c(C(F)(F)F)cc1F)N1[C@H]2CC[C@@H]1C(F)(F)c1c2ccnc1F [Compound 228, (5S,8R)-N-(5-Chloro-2-fluoro-4-(trifluoromethyl)phenyl)-1,9,9-trifluoro-6,7,8,9-tetrahydro-5H-5,8-epiminocyclohepta[c]pyridine-10-carboxamide] | 500 to 5000 |  |
| Cc1nc2ccc(-c3cc(F)c(NC(=O)N4[C@H]5CC[C@@H]4c4c[nH]c(=O)cc4C5)cc3Cl)cc2o1 [Compound 206, (6S,9R)-N-(5-Chloro-2-fluoro-4-(2-methylbenzo[d]oxazol-6-yl)phenyl)-3-oxo-3,5,6,7,8,9-hexahydro-2H-6,9-epiminocyclohepta[c]pyridine-10-carboxamide] | < 500 |  |
| O=C(Nc1cc(Cl)c(-c2ccc3nsnc3c2)cc1F)N1[C@H]2CC[C@@H]1c1c[nH]c(=O)cc1C2 [Compound 176, (6S,9R)-N-(4-(benzo[c][1,2,5]thiadiazol-5-yl)-5-chloro-2-fluorophenyl)-3-oxo-3,5,6,7,8,9-hexahydro-2H-6,9-epiminocyclohepta[c]pyridine-10-carboxamide] | < 500 |  |
| Cc1cc(-c2cc(F)c(NC(=O)N3[C@H]4CC[C@@H]3c3n[nH]c(=O)cc3C4)cc2Cl)ccn1 [Compound 134, (6S,9R)-N-(5-Chloro-2-fluoro-4-(2-methylpyridin-4-yl)phenyl)-3-oxo-3,5,6,7,8,9-hexahydro-2H-6,9-epiminocyclohepta[c]pyridazine-10-carboxamide] | < 500 |  |
| O=C(Nc1cc(Cl)c(C(F)(F)F)cc1F)N1[C@@H]2CC[C@H]1[C@H](F)c1c2ccnc1F [Compound 193, (5R,8S,9R)-N-(5-Chloro-2-fluoro-4-(trifluoromethyl)phenyl)-1,9-difluoro-6,7,8,9-tetrahydro-5H-5,8-epiminocyclohepta[c]pyridine-10-carboxamide] | < 500 |  |
| O=C(Nc1cc(Cl)c(-c2ccncc2F)cc1F)N1[C@H]2CC[C@@H]1c1n[nH]c(=O)cc1C2 [Compound 138, (6S,9R)-N-(5-Chloro-2-fluoro-4-(3-fluoropyridin-4-yl)phenyl)-3-oxo-3,5,6,7,8,9-hexahydro-2H-6,9-epiminocyclohepta[c]pyridazine-10-carboxamide] | < 500 |  |
| O=C(Nc1cc(Cl)c(-c2cncc(F)c2)cc1F)N1[C@H]2CC[C@@H]1c1n[nH]c(=O)cc1C2 [Compound 126, (6S,9R)-N-(5-Chloro-2-fluoro-4-(5-fluoropyridin-3-yl)phenyl)-3-oxo-3,5,6,7,8,9-hexahydro-2H-6,9-epiminocyclohepta[c]pyridazine-10-carboxamide] | < 500 |  |
| O=C(Nc1cc(-c2cncc(F)c2)c(C(F)(F)F)cc1F)N1[C@H]2CC[C@@H]1c1n[nH]c(=O)cc1C2 [Compound 257, (6S,9R)-N-(2-Fluoro-5-(5-fluoropyridin-3-yl)-4-(trifluoromethyl)phenyl)-3-oxo-3,5,6,7,8,9-hexahydro-2H-6,9-epiminocyclohepta[c]pyridazine-10-carboxamide] | < 500 |  |
| O=C(Nc1cc(Cl)c(-c2ccc(F)nc2)cc1F)N1[C@H]2CC[C@@H]1c1ccnc(F)c1C2 [Compound 169, (5R,8S)-N-(5-Chloro-2-fluoro-4-(6-fluoropyridin-3-yl)phenyl)-1-fluoro-6,7,8,9-tetrahydro-5H-5,8-epiminocyclohepta[c]pyridine-10-carboxamide] | < 500 |  |
| O=C(Nc1cc(Cl)c(Cl)cc1F)N1C2CCC1c1n[nH]c(=O)cc1C2 (racemic) [Compound 2, (±)-N-(4,5-Dichloro-2-fluorophenyl)-3-oxo-3,5,6,7,8,9-hexahydro-2H-6,9-epiminocyclohepta[c]pyridazine-10-carboxamide] | < 500 |  |
| COc1ccc(-c2cc(F)c(NC(=O)N3[C@H]4CC[C@@H]3c3n[nH]c(=O)cc3C4)cc2Cl)nc1 [Compound 211, (6S,9R)-N-(5-Chloro-2-fluoro-4-(5-methoxypyridin-2-yl)phenyl)-3-oxo-3,5,6,7,8,9-hexahydro-2H-6,9-epiminocyclohepta[c]pyridazine-10-carboxamide] | < 500 |  |
| O=C(Nc1cc(Cl)c(C(F)(F)F)cc1F)N1[C@H]2CC[C@@H]1c1n[nH]c(=O)cc1C2 [Compound 18, (6S,9R)-N-(5-Chloro-2-fluoro-4-(trifluoromethyl)phenyl)-3-oxo-3,5,6,7,8,9-hexahydro-2H-6,9-epiminocyclohepta[c]pyridazine-10-carboxamide] | < 500 |  |
| O=C(Nc1cc(Cl)c(I)cc1F)N1[C@H]2CC[C@@H]1c1ccnc(F)c1C2 [Compound 77, (5R,8S)-N-(5-Chloro-2-fluoro-4-iodophenyl)-1-fluoro-6,7,8,9-tetrahydro-5H-5,8-epiminocyclohepta[c]pyridine-10-carboxamide] | < 500 |  |
| COCCOc1cnc(F)c2c1[C@H]1CC[C@@H](C2)N1C(=O)Nc1cc(Cl)c(Cl)cc1F [Compound 283, (5R,8S)—N-(4,5-Dichloro-2-fluorophenyl)-1-fluoro-4-(2-methoxyethoxy)-6,7,8,9-tetrahydro-5H-5,8-epiminocyclohepta[c]pyridine-10-carboxamide] |  | 500 to 5000 |
| CNC(=O)c1ccc(-c2cc(F)c(NC(=O)N3[C@H]4CC[C@@H]3c3n[nH]c(=O)cc3C4)cc2Cl)cc1 [Compound 130, (6S,9R)-N-(2-Chloro-5-fluoro-4′-(methylcarbamoyl)-[1,1′-biphenyl]-4-yl)-3-oxo-3,5,6,7,8,9-hexahydro-2H-6,9-epiminocyclohepta[c]pyridazine-10-carboxamide] |  | 500 to 5000 |
| COc1ccc(-c2cc(F)c(NC(=O)N3[C@H]4CC[C@@H]3c3ccnc(F)c3C4)cc2F)cn1 [Compound 245, (5R,8S)-N-(2,5-Difluoro-4-(6-methoxypyridin-3-yl)phenyl)-1-fluoro-6,7,8,9-tetrahydro-5H-5,8-epiminocyclohepta[c]pyridine-10-carboxamide] | < 500 |  |

— patent US20240368173A1, “TRICYCLIC GPR65 MODULATORS” (PATHIOS THERAPEUTICS LIMITED, priority 2021, published 2024)
